According to patent US20240199542A1, “SUBSTITUTED PYRROLIDIN-2-ONES, SALTS THEREOF AND THEIR USE AS HERBICIDALLY ACTIVE SUBSTANCES” (Bayer Aktiengesellschaft, priority 2021, published 2024):

How the values were obtained:
Type in all cases: in vivo
[1] = system: Echinochloa crus-galli (ECHCG); experiment: Herbicidal pre-emergence action; conditions: 1280 g/ha, graded after ca. 3 weeks
Text: (§1) Seeds of mono- and dicotyledonous weed plants and crop plants were sown, in plastic or organic planting pots, in sandy loam and covered with soil. The compounds according to the invention, formulated in the form of wettable powders (WP) or as emulsifiable concentrates (EC), were applied to the surface of the covering soil as aqueous suspension or emulsion, with the addition of 0.5% of an additive, at an application rate of 600 1 of water/ha (converted).
(§2) Following treatment, the pots were placed in a greenhouse and kept under optimum growth conditions for the test plants. The visual grading of the damage to the test plants was carried out after ca. 3 weeks in comparison to untreated controls (herbicidal effect in percent (%): 100% effect=plants have died off, 0% effect=as control plants).
(§3) Tables A1 to A16, below, show the effects of selected compounds of the general formula (I) according to table 1 on various harmful plants and an application rate corresponding to 1280 g/ha or lower obtained by the experimental procedure mentioned above.

Avena fatua (AVEFA) [2] = experiment: Herbicidal pre-emergence action; conditions: graded after ca. 3 weeks
Text: as §1, §2, §3

[3] = system: Echinochloa crus-galli (ECHCG); experiment: Herbicidal post-emergence action; conditions: 1280 g/ha, assessed after ca. 3 weeks
Text: (§4) Seeds of mono- and dicotyledonous weed plants and crop plants were sown, in plastic or organic planting pots, in sandy loam, covered with soil and grown in a greenhouse under controlled growth conditions. 2 to 3 weeks after sowing, the test plants were sprayed in the single-leaf stage. The compounds according to the invention, formulated in form of wettable powders (WP) or as emulsifiable concentrates (EC), were sprayed onto the green plant parts as aqueous suspension or emulsion, with the addition of 0.5% of an additive, at an application rate of 600 1 of water/ha (converted). The test plants were placed in the greenhouse for ca. 3 weeks under optimum growth conditions, and then the effect of the preparations was assessed visually in comparison with untreated controls (herbicidal effect in percent (%): 100% effect=plants have died off, 0% effect=as control plants).
(§5) Tables B1 to B16 below show the effects of selected compounds of the general formula (I) according to table 1 on various harmful plants and an application rate corresponding to 1280 g/ha or 320 g/ha obtained by the experimental procedure mentioned above.

[4] = system: Alopecurus myosuroides (ALOMY); experiment: Herbicidal post-emergence action; conditions: 1280 g/ha, assessed after ca. 3 weeks
Text: as §4, §5

Avena fatua (AVEFA) [5] = experiment: Herbicidal post-emergence action; conditions: 1280 g/ha, assessed after ca. 3 weeks
Text: as §4, §5

Setaria viridis (SETVI) [6] = experiment: Herbicidal post-emergence action; conditions: 1280 g/ha, assessed after ca. 3 weeks
Text: as §4, §5

[7] = system: Lolium multiflorum (LOLMU); experiment: Herbicidal post-emergence action; conditions: 1280 g/ha, assessed after ca. 3 weeks
Text: as §4, §5

[8] = system: Alopecurus myosuroides (ALOMY); experiment: Herbicidal pre-emergence action; conditions: 1280 g/ha, graded after ca. 3 weeks
Text: as §1, §2, §3

Setaria viridis (SETVI) [9] = experiment: Herbicidal pre-emergence action; conditions: 1280 g/ha, graded after ca. 3 weeks
Text: as §1, §2, §3

[10] = system: Lolium multiflorum (LOLMU); experiment: Herbicidal pre-emergence action; conditions: 1280 g/ha, graded after ca. 3 weeks
Text: as §1, §2, §3

[11] = system: Polygonum convolvulus (POLCO); experiment: Herbicidal pre-emergence action; conditions: graded after ca. 3 weeks
Text: as §1, §2, §3

| SMILES | Pre-emergence activity against ECHCG [1] [%] | Pre-emergence activity against AVEFA (Avena fatua (AVEFA) [2]; 1280 g/ha) [%] | Post-emergence activity against ECHCG [3] [%] | Post-emergence activity against ALOMY [4] [%] | Post-emergence activity against AVEFA (Avena fatua (AVEFA) [5]) [%] | Post-emergence activity against SETVI (Setaria viridis (SETVI) [6]) [%] | Post-emergence activity against LOLMU [7] [%] | Pre-emergence activity against ALOMY [8] [%] | Pre-emergence activity against SETVI (Setaria viridis (SETVI) [9]) [%] | Pre-emergence activity against LOLMU [10] [%] | Pre-emergence activity against POLCO ([11]; 1280 g/ha) [%] | Pre-emergence activity against AVEFA (Avena fatua (AVEFA) [2]; 320 g/ha) [%] | Pre-emergence activity against POLCO ([11]; 320 g/ha) [%] |
| --- | --- | --- | --- | --- | --- | --- | --- | --- | --- | --- | --- | --- | --- |
| Cc1ccc(CN2C(=O)CCC2CC(=O)O)c(F)c1F (racemic) [Example I-035] | 80 | 100 | 90 | 80 | 90 | 100 | 80 |  |  |  |  |  |  |
| O=C(CC1CCC(=O)N1Cc1cccc(F)c1F)OCCSc1ccccc1 (racemic) [Example I-022] |  | 90 | 90 |  | 90 | 90 | 80 | 90 | 80 |  |  |  |  |
| CSCCOC(=O)CC1CCC(=O)N1Cc1cccc(F)c1F (racemic) [Example I-010] |  | 100 | 100 | 80 | 90 | 90 | 90 | 80 |  |  |  |  |  |
| O=C(CC1CCC(=O)N1Cc1cccc(F)c1F)NS(=O)(=O)C(F)(F)F (racemic) [Example I-052] |  | 90 | 80 |  |  |  | 80 |  |  |  |  |  |  |
| CC[C@H](C)[C@H](NC(=O)CC1CCC(=O)N1Cc1cccc(F)c1F)C(=O)O (single isomer, unassigned) [Example I-011] |  | 90 | 80 |  | 90 |  | 90 | 80 |  | 80 |  |  |  |
| COC(=O)CC1CCC(=O)N1Cc1cccc(F)c1F (racemic) [Example I-008] | 90 | 100 | 90 | 80 | 90 | 80 | 80 | 90 | 90 | 80 | 90 |  |  |
| O=C(CC1CCC(=O)N1Cc1cccc(F)c1F)NCCO (racemic) [Example I-049] | 80 | 100 |  | 80 |  |  |  | 90 |  | 80 | 90 |  |  |
| CC[C@@H](C)[C@@H](NC(=O)CC1CCC(=O)N1Cc1cccc(F)c1F)C(=O)O (single isomer, unassigned) [Example I-043] | 90 | 100 | 80 | 80 | 80 | 80 | 80 | 90 | 90 | 80 |  |  |  |
| CNC(=O)CC1CCC(=O)N1Cc1cccc(F)c1F (racemic) [Example I-104] |  |  |  |  |  |  |  |  |  |  | 90 |  |  |
| CC(C)OC(=O)CC1CCC(=O)N1Cc1cccc(F)c1F (racemic) [Example I-025] | 90 | 100 | 90 | 80 | 80 |  | 80 | 90 | 80 | 90 | 80 |  |  |
| O=C(CC1CCC(=O)N1Cc1cccc(F)c1F)OCCSc1ccc(Cl)cc1 (racemic) [Example I-038] |  |  | 90 | 80 |  | 80 | 80 |  |  |  |  |  |  |
| CC1(C)OC(=O)C(C(=O)CC2CCC(=O)N2Cc2cccc(F)c2F)C(=O)O1 (racemic) [Example I-186] |  |  | 80 |  |  |  |  |  |  |  | 100 |  |  |
| CC(C)CC(NC(=O)CC1CCC(=O)N1Cc1cccc(F)c1F)C(=O)O (mixture of isomers) [Example I-045] | 80 | 90 |  | 80 |  | 80 | 80 |  |  |  |  |  |  |
| O=C(CC1CCC(=O)N1Cc1cccc(F)c1F)NC(Cc1ccccc1)C(=O)O (mixture of isomers) [Example I-044] | 80 | 90 | 90 |  |  | 80 |  | 80 |  |  | 90 |  |  |
| O=C(CC1CCC(=O)N1Cc1cccc(F)c1F)NN1CCCCC1 (racemic) [Example I-203] |  |  |  |  |  |  |  |  |  |  |  | 100 | 80 |
| CN(C)NC(=O)CC1CCC(=O)N1Cc1cccc(F)c1F (racemic) [Example I-058] |  | 100 | 80 | 80 | 80 |  |  | 90 |  | 80 |  |  |  |
| O=C(CC1CCC(=O)N1Cc1cccc(F)c1F)OCC[S+]([O-])c1ccc(Cl)cc1 (racemic) [Example I-029] | 90 | 100 | 90 | 80 | 90 |  | 80 | 80 | 80 | 80 |  |  |  |
